{"source": "patent EP0233459A1", "about": "“Medicament containing a magnesium-urea complex of acetylsalicylic acid and process for the preparation of this complex” (ARTIKA INTERNATIONAL (HONG-KONG) LIMITED, priority 1986, dated 1987)", "key": {"[1]": {"assay": "pH of the aqueous solution", "assay_type": "physicochemical", "settings": "solution aqueuse, dix pour cent (p/v)", "excerpt": "La solution aqueuse du complexe ASMU, à concentration de dix pour cent (p/v), présente une valeur de pH très proche de 6, donc proche de la neutralité et tout à fait compatible avec celui du pH sanguin."}, "[2]": {"system": "oedème provoqué sur patte de rat", "assay": "Induced rat paw oedema (formol or ovalbumine; tables do not say which)", "assay_type": "in vivo", "settings": "for Δ V1 heure: 1 heure; for Δ V1 heure / Δ V3 heures / VARIATIONS DE VOLUME EXPRIME EN % / INDICE DE PROTECTION: 20 mg/kg en équivalent aspirine; for Δ V3 heures: 3 heures", "experimental": "Deux tests de production d'oedème provoqué sur patte de rat, l'un au formol, et l'autre à l'ovalbumine ont été choisis. Dans les deux cas les mesures ont été opérées en incluant une série d'animaux traitée avec de l'aspirine, en comparaison de celle traitée avec l'ASMU.\nLa dose d'anti-inflammatoire est de 20 mg/kg dans les trois cas, en équivalent aspirine."}, "[3]": {"system": "souris", "assay": "Hot plate test (analgesic activity)", "assay_type": "in vivo", "settings": "moyenne de dix essais", "excerpt": "Le test dit \"de la plaque chauffante\" a donc été pratiqué pour déterminer de la valeur de l'ASMU en comparaison avec l'aspirine. Le principe de la méthode consiste à poser une souris sur une plaque dont on a élevé la température en fonction du temps. On note la température à laquelle la souris saute, la sensation de chaleur devenant douleur. Cette température est relativement fixe pour chaque animal.\nEn recommançant la même expérience avec la souris après administration d'une dose d'un analgésique, on notera une température plus élevée qui sera fonction de la dose et de l'action antalgique de la substance.\nDans le tableau V ci-après ont été rassemblés les ré-sultats, correspondants à une moyenne de dix essais obtenus pour l'aspirine (AAS), l'\"ASPEGIC\" (ASL) et l'ASMU."}, "[4]": {"system": "rat", "settings": "in vivo", "excerpt": "(§1) Des expérimentations ont été réalisées sur l'ASMU. La toxicité aiguë a été étudiée par la détermination classique de la DL₅₀, correspondant à la dose de substance qui, administrée à un groupe d'animaux, provoque la port de la moitié d'entre eux."}, "[5]": {"system": "souris", "settings": "in vivo", "excerpt": "as §1"}, "[6]": {"system": "rat", "settings": "in vivo", "remark": "listed apart in the source"}, "[7]": {"system": "porc", "settings": "in vivo"}, "[8]": {"system": "muqueuse gastrique", "assay_type": "in vivo, rat", "excerpt": "En addition des résultats obtenus lors de l'étude de la toxicité générale de l'ASMU, une expérimentation particulière a été menée sur le rat pour déterminer de façon plus précise l'action irritant sur la muqueuse gastrique que peut développer l'ASMU par rapport à l'aspirine.\nLe rat placé dans des conditions de contrainte (cage de petite dimension, n'interdisant pas le mouvement, mais empêchant l'animal de se déplacer et même de se retourner) pendant une durée de douze heures pendant plusieurs jours, développe rapidement une irritation de l'estomac qui évolue jusqu'à l'ulcère.\nSur cet animal sensibilisé, on peut tester, en même temps que la contrainte, l'action de médicaments irritants qui accélèrent le processus de formation de l'ulcère. En fin d'expé-rience, on sacrifie les animaux, et l'examen de la muqueuse gastrique permet de tirer des conclusions sur le pouvoir irritant des substances en comparaison avec les produits de référence."}, "[9]": {"system": "oreille de lapin", "settings": "in vivo", "excerpt": "Une expérience a été menée sur lapins, afin de déterminer le temps de saignement modifié par l'administration d'ASMU et d'aspirine à doses équivalentes."}, "[10]": {"system": "ostéochondrites déformantes infectieuses", "assay": "Therapeutic use in infectious deforming osteochondritis", "assay_type": "in vivo", "settings": "tous les cas traités", "excerpt": "A titre d'exemple d'application thérapeutique inhabituelle, on a pu observer l'action curative de l'ASMU dans le traitement d'ostéochondrites déformantes infectieuses. […] Seule la déformation a persisté lorsqu'elle existait, comme on pouvait s'y attendre."}, "[11]": {"settings": "état sec"}, "[12]": {"settings": "human, in vivo, po, 5 h"}, "[13]": {"settings": "in vivo"}, "[14]": {"settings": "in vivo", "remark": "listed apart in the source", "text": "L'étude de la biodisponibilité de l'ASMU a été effec­tuée sur diverses espèces animales et sur l'homme, en réalisant des dosages de la forme acétylée et désacétylée dans le temps."}, "[15]": {"settings": "même dose d'aspirine, une heure après administration; 60 min; cited from earlier work"}, "[16]": {"settings": "aspirine, literature knowledge; cited from earlier work"}, "[17]": {"settings": "une heure après l'administration, literature knowledge; cited from earlier work"}}}
{"compound": "CC(=O)Oc1ccccc1C(=O)[O-].CC(=O)Oc1ccccc1C(=O)[O-].NC(N)=O.[Mg+2]", "note": "[ASMU, acétylsalicylate de magnésium-urée]", "values": [{"measurement": "pH", "setting": "[1]", "value": "~6"}, {"measurement": "Δ V1 heure", "setting": "[2]", "value": "0,150±0,04 cm^3"}, {"measurement": "Δ V3 heures", "setting": "[2]", "value": "0,170±0,03 cm^3"}, {"measurement": "VARIATIONS DE VOLUME EXPRIME EN %", "setting": "[2]; A 1 heure", "value": "16,48%"}, {"measurement": "VARIATIONS DE VOLUME EXPRIME EN %", "setting": "[2]; A 3 heures", "value": "18,61%"}, {"measurement": "activité anti-inflammatoire par rapport à celle de l'aspirine", "setting": "[2]; en moyenne, tests au formol et à l'ovalbumine", "value": "dix fois supérieure"}, {"measurement": "INDICE DE PROTECTION", "setting": "[2]; à 1 heure", "value": "78,6%"}, {"measurement": "INDICE DE PROTECTION", "setting": "[2]; à 3 heures", "value": "85,4%"}, {"measurement": "Δt(°C)", "setting": "[3]; 1 heure après administration", "value": "4,75 °C"}, {"measurement": "Δt(°C)", "setting": "[3]; 2 heures après administration", "value": "4,90 °C"}, {"measurement": "Δt(°C)", "setting": "[3]; 3 heures après administration", "value": "4,90 °C"}, {"measurement": "Δt(°C)", "setting": "[3]; ½ heure après administration", "value": "3,70 °C"}, {"measurement": "toxicité aiguë (DL₅₀) diminuée par rapport à l'équivalent aspirine", "setting": "[4]", "value": "~20", "unit": "pour cent"}, {"measurement": "toxicité aiguë (DL₅₀) diminuée par rapport à l'équivalent aspirine", "setting": "[5]", "value": "~20", "unit": "pour cent"}, {"measurement": "toxicité chronique: examens cliniques et anatomopathologiques", "setting": "[6]", "value": "n'a pas provoqué d'anomalie particulière"}, {"measurement": "toxicité chronique: lésion rénale ou stomacale", "setting": "[6]", "value": "aucun signe de lésion rénale ou stomacale"}, {"measurement": "toxicité chronique: examens cliniques et anatomopathologiques", "setting": "[7]", "value": "n'a pas provoqué d'anomalie particulière"}, {"measurement": "toxicité chronique: lésion rénale ou stomacale", "setting": "[7]", "value": "aucun signe de lésion rénale ou stomacale"}, {"measurement": "irritation de la muqueuse gastrique", "setting": "[8]; rat, in vivo", "value": "irritation comparable, mais légèrement supérieure à celle des témoins"}, {"measurement": "ALLONGEMENT DU TEMPS DE SAIGNEMENT", "setting": "[9]", "value": 7, "unit": "%"}, {"measurement": "action curative", "setting": "[10]", "value": "l'inflammation a regressé, puis disparu"}, {"measurement": "durée de conservation sans altération notable", "setting": "[11]", "value": "deux ans et demi"}, {"measurement": "acétylsalicylémie", "setting": "[12]", "value": 40, "unit": "mg par litre de plasma"}, {"measurement": "absorption", "setting": "[13]", "value": "pratiquement complète"}, {"measurement": "acétylsalicylémie, fois plus élevée que celle d'une dose équivalente d'aspirine", "setting": "[14]", "value": "entre dix et quinze"}, {"measurement": "salicylémie moyenne, % de la quantité circulante", "setting": "[14]", "value": "~10", "unit": "pour cent"}]}
{"compound": "CC(=O)Oc1ccccc1C(=O)O", "note": "[A S L]", "values": [{"measurement": "Δ V1 heure", "setting": "[2]; 20 mg/kg", "value": "0,490±0,04 cm^3"}, {"measurement": "Δ V3 heures", "setting": "[2]; 20 mg/kg", "value": "0,700±0,15 cm^3"}, {"measurement": "VARIATIONS DE VOLUME EXPRIME EN %", "setting": "[2]; A 1 heure, 20 mg/kg", "value": "50,16%"}, {"measurement": "VARIATIONS DE VOLUME EXPRIME EN %", "setting": "[2]; A 3 heures, 20 mg/kg", "value": "72,29%"}, {"measurement": "INDICE DE PROTECTION", "setting": "[2]; à 1 heure, 20 mg/kg", "value": 35, "unit": "%"}, {"measurement": "INDICE DE PROTECTION", "setting": "[2]; à 3 heures, 20 mg/kg", "value": 43, "unit": "%"}, {"measurement": "Δt(°C)", "setting": "[3]; 1 heure après administration", "value": "2,15 °C"}, {"measurement": "Δt(°C)", "setting": "[3]; 2 heures après administration", "value": "1,90 °C"}, {"measurement": "Δt(°C)", "setting": "[3]; 3 heures après administration", "value": "0,45 °C"}, {"measurement": "Δt(°C)", "setting": "[3]; ½ heure après administration", "value": "1,25 °C"}, {"measurement": "ALLONGEMENT DU TEMPS DE SAIGNEMENT", "setting": "[9]", "value": 35, "unit": "%"}]}
{"compound": "CC(=O)Oc1ccccc1C(=O)O", "note": "[AAS, aspirine]", "values": [{"measurement": "Δ V1 heure", "setting": "[2]; 20 mg/kg", "value": "0,580±0,03 cm^3"}, {"measurement": "Δ V3 heures", "setting": "[2]; 20 mg/kg", "value": "0,930±0,05 cm^3"}, {"measurement": "VARIATIONS DE VOLUME EXPRIME EN %", "setting": "[2]; A 1 heure, 20 mg/kg", "value": 72, "unit": "%"}, {"measurement": "VARIATIONS DE VOLUME EXPRIME EN %", "setting": "[2]; A 3 heures, 20 mg/kg", "value": "115,01%"}, {"measurement": "INDICE DE PROTECTION", "setting": "[2]; à 1 heure, 20 mg/kg", "value": 7, "unit": "%"}, {"measurement": "INDICE DE PROTECTION", "setting": "[2]; à 3 heures, 20 mg/kg", "value": 10, "unit": "%"}, {"measurement": "Δt(°C)", "setting": "[3]; 1 heure après administration", "value": "1,15 °C"}, {"measurement": "Δt(°C)", "setting": "[3]; 2 heures après administration", "value": "1,40 °C"}, {"measurement": "Δt(°C)", "setting": "[3]; 3 heures après administration", "value": "0,75 °C"}, {"measurement": "Δt(°C)", "setting": "[3]; ½ heure après administration", "value": "0,90 °C"}, {"measurement": "animaux traités avec ulcères", "setting": "[8]; rat sous contrainte", "value": 80, "unit": "pour cent"}, {"measurement": "ALLONGEMENT DU TEMPS DE SAIGNEMENT", "setting": "[9]", "value": 66, "unit": "%"}, {"measurement": "quantités d'aspirine retrouvées dans le sang", "setting": "[15]", "value": "~3", "unit": "mg par litre"}, {"measurement": "part de la dose absorbée par l'organisme", "setting": "[16]", "value": "deux tiers"}, {"measurement": "part de la dose initiale sous la forme acétylée", "setting": "[17]", "value": "~10", "unit": "pour 100"}]}
